In ChEMBL document CHEMBL1139716, “Naphtho[2,3-b][1,4]-thiazine-5,10-diones and 3-substituted-1,4-dioxo-1,4-dihydronaphthalen-2-yl-thioalkanoate derivatives: synthesis and biological evaluation as potential antibacterial and antifungal agents” (Bioorg Med Chem Lett, 2006):
In brackets after ≈: the same amount, converted by molar mass.

How the values were obtained:
[1] = system: Trichophyton benhamiae; assay: Antifungal activity against Trichophyton mentagrophytes by broth microdilution technique; format: functional, organism-based, Arthroderma benhamiae
[2] = system: Staphylococcus aureus; assay: Antibacterial activity against Staphylococcus aureus by broth microdilution technique; format: functional, organism-based
[3] = system: Pseudomonas aeruginosa; assay: Antibacterial activity against Pseudomonas aeruginosa by broth microdilution technique; format: functional, organism-based
[4] = system: Sporothrix schenckii; assay: Antifungal activity against Sporothrix schenckii by broth microdilution technique; format: functional, organism-based
[5] = system: Klebsiella pneumoniae; assay: Antibacterial activity against Klebsiella pneumoniae by broth microdilution technique; format: functional, organism-based
[6] = system: Aspergillus fumigatus; assay: Antifungal activity against Aspergillus fumigatus by broth microdilution technique; format: functional, organism-based
[7] = system: Escherichia coli; assay: Antibacterial activity against Escherichia coli by broth microdilution technique; format: functional, organism-based
[8] = system: Cryptococcus neoformans; assay: Antifungal activity against Cryptococcus neoformans by broth microdilution technique; format: functional, organism-based
[9] = system: Candida albicans; assay: Antifungal activity against Candida albicans by broth microdilution technique; format: functional, organism-based
[10] = system: Candida parapsilosis; assay: Antifungal activity against Candida parapsilosis ATCC 22019 by broth microdilution technique; format: functional, organism-based; settings: Lodderomyces parapsilosis
[11] = system: Enterococcus faecalis; assay: Antibacterial activity against Streptococcus faecalis by broth microdilution technique; format: functional, organism-based
[12] = Staphylococcus aureus, read-out: IC50
[13] = Pseudomonas aeruginosa, read-out: IC50
[14] = Klebsiella pneumoniae, read-out: IC50
[15] = Escherichia coli, read-out: IC50
[16] = Enterococcus faecalis, read-out: IC50

Molecule	IC50 [1] [µg/mL]	MIC [1] [µg/mL]	MIC ([2]; Staphylococcus aureus) [µg/mL]	IC50 [2, 12] [µg/mL]	MIC ([3]; Pseudomonas aeruginosa) [µg/mL]	IC50 [3, 13] [µg/mL]	IC50 [4] [µg/mL]	MIC [4] [µg/mL]	MIC ([5]; Klebsiella pneumoniae) [µg/mL]	IC50 [5, 14] [µg/mL]	IC50 [6] [µg/mL]	MIC [6] [µg/mL]	MIC ([7]; Escherichia coli) [µg/mL]	IC50 [7, 15] [µg/mL]	IC50 [8] [µg/mL]	MIC [8] [µg/mL]	IC50 [9] [µg/mL]	MIC [9] [µg/mL]	IC50 [10] [µg/mL]	MIC [10] [µg/mL]	also measured
CCOC(=O)CSC1=C(Nc2ccccc2)C(=O)c2ccccc2C1=O	23 (≈ 62.6 µM)	25 (≈ 68 µM)	12.5 (≈ 34 µM)	11.8 (≈ 32.2 µM)	25 (≈ 68 µM)	22.8 (≈ 62.1 µM)	46.7 (≈ 127 µM)	50 (≈ 136 µM)	12.5 (≈ 34 µM)	9.24 (≈ 25.1 µM)	> 50	> 50	6.25 (≈ 17 µM)	4.32 (≈ 11.8 µM)	> 50	> 50	> 50	> 50	> 50	> 50	MIC ([11]; Enterococcus faecalis): 25 µg/mL (≈ 68 µM); IC50 [11, 16]: 18.6 µg/mL (≈ 50.7 µM)
CCOC(=O)CSC1=C(NCc2ccccc2)C(=O)c2ccccc2C1=O	4.5 (≈ 11.8 µM)	6.25 (≈ 16.4 µM)	12.5 (≈ 32.8 µM)	11.6 (≈ 30.4 µM)	> 50	> 50	> 50	> 50	25 (≈ 65.5 µM)	22.3 (≈ 58.6 µM)	> 50	> 50	12.5 (≈ 32.8 µM)	9.2 (≈ 24.1 µM)	> 50	> 50	> 50	> 50	> 50	> 50	MIC ([11]; Enterococcus faecalis): > 50 µg/mL; IC50 [11, 16]: > 50 µg/mL
CCOC(=O)C(C)SC1=C(NCCc2ccc(OC)c(OC)c2)C(=O)c2ccccc2C1=O (stereo unspecified)	14 (≈ 29.8 µM)	25 (≈ 53.2 µM)	12.5 (≈ 26.6 µM)	9.52 (≈ 20.3 µM)	50 (≈ 106 µM)	46.2 (≈ 98.5 µM)	> 50	> 50	50 (≈ 106 µM)	42.5 (≈ 90.6 µM)	> 50	> 50	50 (≈ 106 µM)	44.3 (≈ 94.3 µM)	> 50	> 50	> 50	> 50	> 50	> 50	MIC ([11]; Enterococcus faecalis): > 50 µg/mL; IC50 [11, 16]: > 50 µg/mL
CCOC(=O)CSC1=C(NCC(C)C)C(=O)c2ccccc2C1=O	9.8 (≈ 28.2 µM)	12.5 (≈ 36 µM)	25 (≈ 72 µM)	21.6 (≈ 62.1 µM)	50 (≈ 144 µM)	42.5 (≈ 122 µM)	22.8 (≈ 65.7 µM)	50 (≈ 144 µM)	50 (≈ 144 µM)	38.5 (≈ 111 µM)	> 50	> 50	50 (≈ 144 µM)	39.3 (≈ 113 µM)	> 50	> 50	> 50	> 50	> 50	> 50	MIC ([11]; Enterococcus faecalis): 25 µg/mL (≈ 72 µM); IC50 [11, 16]: 19.5 µg/mL (≈ 56.2 µM)
CCOC(=O)C(C)SC1=C(N)C(=O)c2ccccc2C1=O (stereo unspecified)	> 50	> 50	6.25 (≈ 20.5 µM)	6.16 (≈ 20.2 µM)	50 (≈ 164 µM)	34.5 (≈ 113 µM)	17.9 (≈ 58.7 µM)	25 (≈ 81.9 µM)	12.5 (≈ 40.9 µM)	11.7 (≈ 38.3 µM)	16.6 (≈ 54.3 µM)	25 (≈ 81.9 µM)	1.56 (≈ 5.11 µM)	1.18 (≈ 3.86 µM)	12 (≈ 39.3 µM)	12.5 (≈ 40.9 µM)	24.2 (≈ 79.3 µM)	25 (≈ 81.9 µM)	21.2 (≈ 69.6 µM)	25 (≈ 81.9 µM)	MIC ([11]; Enterococcus faecalis): 12.5 µg/mL (≈ 40.9 µM); IC50 [11, 16]: 8.54 µg/mL (≈ 28 µM)
GENTAMICIN																					IC50 [2]: 4.46 µg/mL; IC50 [3]: 24.64 µg/mL; IC50 [5]: 0.34 µg/mL; IC50 [7]: 0.11 µg/mL; IC50 [11]: 0.62 µg/mL
CCOC(=O)CSC1=C(NC(C)C)C(=O)c2ccccc2C1=O	9.8 (≈ 29.4 µM)	12.5 (≈ 37.5 µM)	12.5 (≈ 37.5 µM)	18.5 (≈ 55.4 µM)	50 (≈ 150 µM)	35.9 (≈ 108 µM)	38.6 (≈ 116 µM)	50 (≈ 150 µM)	50 (≈ 150 µM)	46.9 (≈ 141 µM)	44.9 (≈ 135 µM)	50 (≈ 150 µM)	25 (≈ 75 µM)	25 (≈ 74.9 µM)	11.3 (≈ 33.8 µM)	12.5 (≈ 37.5 µM)	44.3 (≈ 133 µM)	50 (≈ 150 µM)	23.2 (≈ 69.7 µM)	25 (≈ 75 µM)	MIC ([11]; Enterococcus faecalis): 25 µg/mL (≈ 75 µM); IC50 [11, 16]: 20.6 µg/mL (≈ 61.9 µM)
CCOC(=O)C(C)SC1=C(NC(C)(C)C)C(=O)c2ccccc2C1=O (stereo unspecified)	2.8 (≈ 7.75 µM)	3.12 (≈ 8.63 µM)	6.25 (≈ 17.3 µM)	3.98 (≈ 11 µM)	6.25 (≈ 17.3 µM)	5.32 (≈ 14.7 µM)	10.9 (≈ 30.2 µM)	12.5 (≈ 34.6 µM)	6.25 (≈ 17.3 µM)	4.82 (≈ 13.3 µM)	21.8 (≈ 60.4 µM)	25 (≈ 69.2 µM)	6.25 (≈ 17.3 µM)	4.38 (≈ 12.1 µM)	10.3 (≈ 28.5 µM)	12.5 (≈ 34.6 µM)	38.3 (≈ 106 µM)	50 (≈ 138 µM)	22.2 (≈ 61.4 µM)	25 (≈ 69.2 µM)	MIC ([11]; Enterococcus faecalis): 6.25 µg/mL (≈ 17.3 µM); IC50 [11, 16]: 5.62 µg/mL (≈ 15.5 µM)
CCOC(=O)C(C)SC1=C(NCCO)C(=O)c2ccccc2C1=O (stereo unspecified)	> 50	> 50	6.25 (≈ 17.9 µM)	4.82 (≈ 13.8 µM)	25 (≈ 71.5 µM)	24.5 (≈ 70.2 µM)	21.9 (≈ 62.8 µM)	25 (≈ 71.5 µM)	12.5 (≈ 35.8 µM)	11.6 (≈ 33.1 µM)	23.9 (≈ 68.5 µM)	25 (≈ 71.5 µM)	3.12 (≈ 8.93 µM)	2.24 (≈ 6.41 µM)	6.92 (≈ 19.8 µM)	12.5 (≈ 35.8 µM)	23.3 (≈ 66.6 µM)	25 (≈ 71.5 µM)	22.5 (≈ 64.5 µM)	25 (≈ 71.5 µM)	MIC ([11]; Enterococcus faecalis): 6.25 µg/mL (≈ 17.9 µM); IC50 [11, 16]: 5.42 µg/mL (≈ 15.5 µM)
